Laboratory results from paper PMC11200585, “Prospects for Prostate Cancer Chemotherapy: Cytotoxic Evaluation and Mechanistic Insights of Quinolinequinones with ADME/PK Profile” (Biomedicines, 2024).

How the values were obtained:
DU-145 cells = assay: MTT assay; type: cell-based; settings: Homo sapiens, 24 h, mean ± SEM
Procedure: (§1) For the MTT assay, DU-145, MDA-MB-231, HCT-116, and HUVEC cells (American Type Culture Collection) were seeded at a concentration of 1 × 10^4 cells per well in 96-well plates and allowed to incubate overnight, ensuring proper adherence. Subsequently, a series of concentrations for both AQQ1 and AQQ2 (ranging from 1 to 100 µM) were added to the culture medium with a final concentration of 1% DMSO, and cells were subjected to an additional 24 h incubation period. The control group only received 1% DMSO (Biomatik, Cambridge, ON, Canada). To establish a baseline for comparison, DOXO (Saba, İstanbul, Turkey), a known chemotherapeutic agent, was administered at equivalent concentrations. Following the incubation period, MTT (3-(4,5-dimethylthiazol-2-yl)-2,5-diphenyltetrazolium bromide) (Biomatik, Canada) assay was carried out to assess cell viability. Finally, the absorbance was quantified at 590 nm using a BioTek Epoc plate reader (Biotek, Winooski, VT, USA). The derived data were analysed using GraphPad Prism 8 software to calculate the inhibitory concentration 50 (IC50) values of the test compounds.

[1] = system: Human Umbilical Vein Endothelial Cells (HUVEC); assay: MTT assay; type: cell-based; settings: 24 h, mean ± SEM
Procedure: as §1

HCT-116 cells = assay: MTT assay; type: cell-based; settings: Homo sapiens, 24 h, mean ± SEM
Procedure: as §1

MDA-MB-231 cells = assay: MTT assay; type: cell-based; settings: Homo sapiens, 24 h, mean ± SEM
Procedure: as §1

[2] = In vitro metabolic stability; type: in vitro ADME, rat (Sprague-Dawley); settings: Rat liver microsomes; for % Metabolism in 30 min: 0.5 µM, 0.5 mg/mL protein; for half-life at 0.5 µM / microsomal CLint at 0.5 µM: male, Sprague-Dawley, pH 7.4
Procedure: (§2) S2. ADME and PK Profiling
(§3) S2.1. In vitro Metabolic Stability Study […]
(§4) metabolic stability of AQQ1 and AQQ2. A final protein (liver microsomal) concentration of 0.5 mg/mL and final test substance (AQQ1 and AQQ2) concentration of 0.5 µM were used for the study. To the respective microsomes at a volume of 12.5 µL in the well, 2.5 µL of test substance ([…] in acetonitrile: dimethyl sulfoxide, 96:4) in the presence and absence of NADPH (50 µL, 10 mM) were added and the final volume made up to 500 µL with sodium phosphate buffer (50 mM, pH 7.4). The one without NADPH served as control. Sampling (50 µL) were done at the following time points: 0, 5, 10, 15, and 30 min for sample and at 0 and 30 min for control.
(§5) Acetonitrile (150 µL) was used as quenching solvent, internal standard (Rolipram) was added, vortexed/centrifuged and the aliquot from the supernatant was analyzed using LC-MS/MS. All the experiments were performed in duplicate.

HCC-2998 = assay: NCI-60 five-dose assay (colon cancer); type: cell-based, human; settings: 48 h, SRB; for GI50 / LC50 (concentration killing 50% of cells): Homo sapiens
[3] = Log D (experimental, n-octanol); type: physicochemical; settings: n-octanol (aqueous phase not stated)
MDA-MB-435 = assay: NCI-60 five-dose assay (melanoma); type: cell-based, human; settings: 48 h, SRB; for GI50 / CC50: Homo sapiens; for CC50: read-out: LC50 (the source's name)
[4] = In vitro metabolic stability; type: in vitro ADME, dog (Beagle); settings: Dog liver microsomes; for % Metabolism in 30 min: 0.5 µM, 0.5 mg/mL protein; for half-life at 0.5 µM / microsomal CLint at 0.5 µM: male, Beagle, pH 7.4
Procedure: as §2, §3, §4, §5

[5] = Log P (experimental, n-octanol); type: physicochemical
RXF 393 = assay: NCI-60 five-dose assay (renal cancer); type: cell-based, human; settings: 48 h, SRB; for GI50 / LC50: Homo sapiens
OVCAR-3 = assay: NCI-60 five-dose assay (ovarian cancer); type: cell-based, human; settings: 48 h, SRB; for GI50 / CC50: Homo sapiens; for CC50: read-out: LC50 (the source's name)

COc1ccccc1NC1=C(Cl)C(=O)c2nc(C)ccc2C1=O [AQQ1]
IC50 (DU-145 cells): 4.18 ± 0.73 µM
IC50 [1]: 5.39 ± 0.73 µM
IC50 (HCT-116 cells): 5.83 ± 0.76 µM
IC50 (MDA-MB-231 cells): 8.27 ± 0.91 µM
% Metabolism in 30 min [2]: 100%
half-life at 0.5 µM [2]: 2 min
microsomal CLint at 0.5 µM [2]: 656 µL/min/mg
TGI (HCC-2998): 3.46 µM
GI50 (HCC-2998): 1.87 µM
LC50 (concentration killing 50% of cells) (HCC-2998): 6.42 µM
logD [3]: 2.37
TGI (MDA-MB-435): 3.11 µM
GI50 (MDA-MB-435): 1.7 µM
CC50 (MDA-MB-435): 5.67 µM
% Metabolism in 30 min [4]: 41.5%
half-life at 0.5 µM [4]: 31 min
microsomal CLint at 0.5 µM [4]: 45 µL/min/mg
logP [5]: 1.85
TGI (RXF 393): 2.76 µM
GI50 (RXF 393): 1.42 µM
LC50 (RXF 393): 5.36 µM
TGI (OVCAR-3): 2.40 µM
GI50 (OVCAR-3): 1.12 µM
CC50 (OVCAR-3): 5.15 µM

CCOc1ccccc1NC1=C(Cl)C(=O)c2nc(C)ccc2C1=O [AQQ2]
IC50 (DU-145 cells): 4.17 ± 0.8 µM
IC50 [1]: 6.39 ± 0.8 µM
IC50 (HCT-116 cells): 9.18 ± 0.96 µM
IC50 (MDA-MB-231 cells): 13.3 ± 1.12 µM
% Metabolism in 30 min [2]: 100%
half-life at 0.5 µM [2]: 3 min
microsomal CLint at 0.5 µM [2]: 501 µL/min/mg
TGI (HCC-2998): 3.52 µM
GI50 (HCC-2998): 1.94 µM
LC50 (concentration killing 50% of cells) (HCC-2998): 6.39 µM
logD [3]: 2.35
TGI (MDA-MB-435): 0.671 µM
GI50 (MDA-MB-435): 0.266 µM
CC50 (MDA-MB-435): 2.45 µM
% Metabolism in 30 min [4]: 79.5%
half-life at 0.5 µM [4]: 17 min
microsomal CLint at 0.5 µM [4]: 84 µL/min/mg
logP [5]: 1.77
TGI (RXF 393): 2.78 µM
GI50 (RXF 393): 1.44 µM
LC50 (RXF 393): 5.39 µM
TGI (OVCAR-3): 2.03 µM
GI50 (OVCAR-3): 0.759 µM
CC50 (OVCAR-3): 4.54 µM

COc1cc(NC2=C(Cl)C(=O)c3nc(C)ccc3C2=O)cc(OC)c1 [AQQ5]
TGI (HCC-2998): 3.26 µM
GI50 (HCC-2998): 1.81 µM
LC50 (concentration killing 50% of cells) (HCC-2998): 5.88 µM
TGI (MDA-MB-435): 3.57 µM
GI50 (MDA-MB-435): 1.72 µM
CC50 (MDA-MB-435): 7.39 µM
TGI (RXF 393): 2.99 µM
GI50 (RXF 393): 1.63 µM
LC50 (RXF 393): 5.48 µM

CCOc1ccc(NC2=C(Cl)C(=O)c3nc(C)ccc3C2=O)cc1 [AQQ3]
TGI (HCC-2998): 3.25 µM
GI50 (HCC-2998): 1.76 µM
LC50 (concentration killing 50% of cells) (HCC-2998): 6 µM
TGI (MDA-MB-435): 1.53 µM
GI50 (MDA-MB-435): 0.442 µM
CC50 (MDA-MB-435): 3.99 µM
TGI (RXF 393): 2.96 µM
GI50 (RXF 393): 1.57 µM
LC50 (RXF 393): 5.61 µM
TGI (OVCAR-3): 2.19 µM
GI50 (OVCAR-3): 0.962 µM
CC50 (OVCAR-3): 4.87 µM
